The values that follow come from patent US11555036B2, “FGFR4 inhibitor, preparation method therefor and pharmaceutical use thereof” (Abbisko Therapeutics Co., Ltd., priority 2016, dated 2023).

One experiment deals with FGFR4 (Homo sapiens, UniProt P22455). The experiment in a line: FGFR4 Caliper Assay (in vitro biochemical kinase analysis of FGFR4). The note with it: read-out: Enzymatic activity FGFR4 IC50. The method in brief:
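Kinase reaction at 30° C for 40 min in 50 mM HEPES pH 7.5, 16 mM MgCl2, 1 mM DTT, 0.6% DMSO, stopped with EDTA. Phosphorylated and unphosphorylated fluorescent peptides separated by Caliper microfluidic mobility shift. IC50 by non-linear regression of percent inhibition.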

The test system of experiment [1] is Huh7 hepatocellular carcinoma cells. Nature of the experiment: FGFR4 cell proliferation experiment, Cell Titer Glo (CTG). The format is cell-based. The note with it: Homo sapiens, Huh-7, 72 h, HuH-7 cells, 3 days; for pIC50: concentration leading to absolute half growth inhibition; for pEC50: concentration leading to half maximal growth inhibition. In short, it runs like this: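 Cells treated with 5-fold serial dilutions starting at 10 μM for 3 days at 37° C, 5% CO2. Proliferation/survival quantified as cellular ATP by CellTiter-Glo luminescence.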

Each structure is given as a SMILES string. pEC50, pIC50: −log10 of the molar value.

One may read the pIC50 as the IC50 on a negative log10 scale, so that one unit is a factor of ten. A word on the pEC50: it is −log10 of the EC50, conventionally taken in molar units. Lower therefore signals a large EC50.

Chain of FGFR4 (P22455 22-802): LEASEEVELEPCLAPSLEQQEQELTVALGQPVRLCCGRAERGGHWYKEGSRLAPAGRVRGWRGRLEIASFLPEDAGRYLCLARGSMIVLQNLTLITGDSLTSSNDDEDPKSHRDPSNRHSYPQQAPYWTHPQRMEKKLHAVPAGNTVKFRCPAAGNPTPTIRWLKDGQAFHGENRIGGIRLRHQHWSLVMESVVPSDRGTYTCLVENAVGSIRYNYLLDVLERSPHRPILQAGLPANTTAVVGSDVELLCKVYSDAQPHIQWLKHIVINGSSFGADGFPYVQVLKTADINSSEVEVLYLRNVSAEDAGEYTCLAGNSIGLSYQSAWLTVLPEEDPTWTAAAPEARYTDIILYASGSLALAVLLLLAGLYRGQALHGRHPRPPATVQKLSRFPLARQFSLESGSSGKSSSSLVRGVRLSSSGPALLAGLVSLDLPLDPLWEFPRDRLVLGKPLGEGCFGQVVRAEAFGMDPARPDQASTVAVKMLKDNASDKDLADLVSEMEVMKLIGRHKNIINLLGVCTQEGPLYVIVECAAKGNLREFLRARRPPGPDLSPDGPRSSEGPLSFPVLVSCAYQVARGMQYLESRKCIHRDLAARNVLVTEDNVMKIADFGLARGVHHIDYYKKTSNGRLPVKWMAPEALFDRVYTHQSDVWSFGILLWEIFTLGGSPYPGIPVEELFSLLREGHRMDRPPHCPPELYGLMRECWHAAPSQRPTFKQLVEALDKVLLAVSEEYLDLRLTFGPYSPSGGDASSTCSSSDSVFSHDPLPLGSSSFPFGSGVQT

Regarding `C=CC(=O)N[C@H]1CCOC[C@H]1Nc1ncc2cc(-c3c(F)c(OC)cc(OC)c3F)nc(NC)c2n1` [Example 786, N-((3S,4S)-3-((6-(2,6-difluoro-3,5-dimethoxyphenyl)-8-(methylamino)py-rido[3,4-d]pyrimidin-2-yl)amino)tetra-hydro-2H-pyran-4-yl)acrylamide], the pIC50 at FGFR4 was 7.77; in experiment [1] it was 7.32. The pEC50 in experiment [1] was 7.42.

Consider `C=CC(=O)N[C@H]1COC[C@H]1Nc1ncc2cc(-c3c(F)c(OC)cc(OC)c3F)nc(N3CC(C)(O)C3)c2n1` [Example 773, N-((3R,4S)-4-((6-(2,6-difluoro-3,5-dimethoxyphenyl)-8-(3-hydroxy-3-meth-ylazetidin-1-yl)pyrido[3,4-d]py-rimidin-2-yl)amino)tetrahydrofuran-3-yl)acrylamide], for which, on FGFR4, the pIC50 was 8.74. In addition, in experiment [1], the pIC50 was 8.64 and the pEC50 was 8.70.

With `C=CC(=O)N[C@H]1CCOC[C@H]1Nc1ncc2cc(-c3c(F)c(OC)cc(OC)c3F)nc(N3CC(F)(F)C3)c2n1` [Example 791, N-((3S,4S)-3-((6-(2,6-difluoro-3,5-dimethoxyphenyl)-8-(3,3-difluoroazet-idin-1-yl)pyrido[3,4-d]pyrimidin-2-yl)amino)tetrahydro-2H-pyran-4-yl)acrylamide], the pIC50 on FGFR4 is 8.43. In experiment [1], this compound had a pIC50 of 8.08 and a pEC50 of 8.19.

On to `C=CC(=O)N[C@H]1COC[C@H]1Nc1ncc2cc(-c3c(Cl)c(OC)cc(OC)c3Cl)nc(NCCOC)c2n1` [Example 422, N-((3R,4S)-4-((6-(2,6-dichloro-3,5-di-methoxyphenyl)-8-((2-methoxyethyl)amino)pyrido[3,4-d]pyrimidin-2-yl)a-mino)tetrahydrofuran-3-yl)acrylamide], for which the pIC50 on FGFR4 was 7.65. Moreover, in experiment [1], the pIC50 was 6.62 and the negative-log EC50 (pEC50) is 7.33.

As to `C=CC(=O)N[C@H]1COC[C@H]1Nc1ncc2cc(-c3c(F)c(OC)cc(OC)c3F)ncc2n1` [Example 120, N-((3R,4S)-4-((6-(2,6-difluoro-3,5-dime-thoxyphenyl)pyrido[3,4-d]pyrimidin-2-yl)amino)tetrahydrofuran-3-yl)acrylamide], the pIC50 on FGFR4 is 6.52. For the same compound, in experiment [1], the pIC50 is 6.12 and the pEC50 was 6.81.

As for `C=CC(=O)Nc1cccc(C)c1Nc1cc2c(=O)n(C)c(-c3c(Cl)c(OC)cc(OC)c3Cl)cc2cn1` [Example 1, N-(2-((7-(2,6-dichloro-3,5-dimethoxyphenyl)-6-methyl-5-oxo-5,6-dihydro-2,6-naphthyridin-3-yl)amino)-3-methylphenyl)acrylamide], the pIC50 on FGFR4 is 7.86. In experiment [1], the pIC50 was 5.61 and the pEC50 was 5.82.

For `C=CC(=O)N[C@H]1CCOC[C@H]1Nc1ncc2cc(-c3c(Cl)c(OC)cc(OC)c3Cl)nc(N3CC(OC)C3)c2n1` [Example 704, N-((3S,4S)-3-((6-(2,6-dichloro-3,5-di-methoxyphenyl)-8-(3-methoxyazeti-din-1-yl)pyrido[3,4-d]pyrimidin-2-yl)amino)tetrahydro-2H-pyran-4-yl)acrylamide], the pIC50 on FGFR4 is 8.07. In experiment [1], this compound gave a pIC50 of 7.69 and a pEC50 of 7.76.

`C=CC(=O)N[C@H]1COC[C@H]1Nc1ncc2cc(-c3c(F)c(OC)cc(OC)c3F)nc(N3CC(C)(OC)C3)c2n1` [Example 666, N-((3R,4S)-4-((6-(2,6-difluoro-3,5-dimethoxyphenyl)-8-(3-methoxy-3-methylazetidin-1-yl)pyrido[3,4-d]pyri-midin-2-yl)amino)tetrahydrofuran-3-yl)acrylamide]: the pIC50 on FGFR4 is 8.35; in experiment [1], 8.34. Further, the pEC50 in experiment [1] is 8.49.
